Test results: patent US9340590B2 (priority 2011, dated 2016)
Where two headings read alike, the source gives them in different places. Positions of bridges follow the written chain, without caps; N, C: chain ends. Residues, ends and D or L forms follow the SMILES beside them.

Molecular target: hNav1.7 (Homo sapiens, UniProt Q15858)
Test: cell-based
Format: cell-based
Details: read-out: IWQ Use Nav1.7

hNav1.7, sequence (Q15858 whole entry, looked up): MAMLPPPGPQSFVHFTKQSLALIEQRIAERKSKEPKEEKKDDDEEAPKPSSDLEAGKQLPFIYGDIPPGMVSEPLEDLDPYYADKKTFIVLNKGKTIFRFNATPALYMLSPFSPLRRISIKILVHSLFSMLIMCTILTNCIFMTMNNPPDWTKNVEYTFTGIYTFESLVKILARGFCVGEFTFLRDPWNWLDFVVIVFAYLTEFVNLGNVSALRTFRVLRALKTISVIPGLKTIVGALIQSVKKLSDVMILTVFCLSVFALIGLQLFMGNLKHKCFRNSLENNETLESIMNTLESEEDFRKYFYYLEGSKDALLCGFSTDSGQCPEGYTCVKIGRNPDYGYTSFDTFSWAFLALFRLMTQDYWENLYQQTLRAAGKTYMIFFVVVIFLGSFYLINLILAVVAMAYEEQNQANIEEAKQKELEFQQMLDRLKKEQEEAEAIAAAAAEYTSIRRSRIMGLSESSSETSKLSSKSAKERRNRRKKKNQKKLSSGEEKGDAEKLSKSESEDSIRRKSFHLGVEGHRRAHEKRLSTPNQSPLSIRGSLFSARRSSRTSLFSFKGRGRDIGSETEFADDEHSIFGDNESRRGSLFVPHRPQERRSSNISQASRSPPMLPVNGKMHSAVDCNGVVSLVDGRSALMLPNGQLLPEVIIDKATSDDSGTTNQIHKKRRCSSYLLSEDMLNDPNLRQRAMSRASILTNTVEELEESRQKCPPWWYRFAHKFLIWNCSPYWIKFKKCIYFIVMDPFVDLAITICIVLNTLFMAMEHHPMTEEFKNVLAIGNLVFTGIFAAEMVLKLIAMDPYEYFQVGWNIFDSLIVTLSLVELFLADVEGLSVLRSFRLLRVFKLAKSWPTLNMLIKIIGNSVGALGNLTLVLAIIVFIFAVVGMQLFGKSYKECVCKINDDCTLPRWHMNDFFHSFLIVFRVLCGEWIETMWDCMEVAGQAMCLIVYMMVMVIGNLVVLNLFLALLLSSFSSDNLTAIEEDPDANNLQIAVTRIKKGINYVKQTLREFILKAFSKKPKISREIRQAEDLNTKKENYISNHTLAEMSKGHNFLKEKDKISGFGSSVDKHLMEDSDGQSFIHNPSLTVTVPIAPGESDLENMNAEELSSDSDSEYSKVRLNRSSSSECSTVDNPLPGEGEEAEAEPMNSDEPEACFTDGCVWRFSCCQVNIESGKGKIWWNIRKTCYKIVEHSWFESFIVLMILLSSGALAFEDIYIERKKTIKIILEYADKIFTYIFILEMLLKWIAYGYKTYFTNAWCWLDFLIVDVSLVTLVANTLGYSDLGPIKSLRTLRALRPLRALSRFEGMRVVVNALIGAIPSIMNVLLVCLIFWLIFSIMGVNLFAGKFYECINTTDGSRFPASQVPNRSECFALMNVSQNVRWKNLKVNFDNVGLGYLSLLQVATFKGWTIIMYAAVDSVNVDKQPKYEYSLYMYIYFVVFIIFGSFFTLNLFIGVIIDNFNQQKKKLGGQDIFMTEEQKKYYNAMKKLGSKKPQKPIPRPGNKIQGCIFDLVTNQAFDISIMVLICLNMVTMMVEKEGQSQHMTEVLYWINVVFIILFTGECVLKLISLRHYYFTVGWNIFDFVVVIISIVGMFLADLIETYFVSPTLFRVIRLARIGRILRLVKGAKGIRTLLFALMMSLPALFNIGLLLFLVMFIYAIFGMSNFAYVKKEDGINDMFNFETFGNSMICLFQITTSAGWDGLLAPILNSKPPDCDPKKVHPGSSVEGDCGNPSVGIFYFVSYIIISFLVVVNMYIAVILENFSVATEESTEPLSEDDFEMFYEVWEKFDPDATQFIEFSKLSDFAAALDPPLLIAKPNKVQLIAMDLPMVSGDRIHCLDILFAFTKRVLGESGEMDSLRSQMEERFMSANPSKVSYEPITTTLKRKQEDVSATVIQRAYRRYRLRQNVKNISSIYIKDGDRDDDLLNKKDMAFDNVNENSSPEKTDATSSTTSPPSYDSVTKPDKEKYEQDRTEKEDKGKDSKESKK

CC[C@H](C)[C@@H]1NC(=O)[C@@H]2CSSC[C@@H]3NC(=O)[C@H](C(C)C)NC(=O)[C@H](CC(C)C)NC(=O)[C@H](CC(N)=O)NC(=O)[C@@H]4CCCN4C(=O)[C@H](CCCNC(=N)N)NC(=O)[C@H](CSSC[C@H](NC(=O)[C@@H](N)CC(=O)O)C(=O)N[C@@H](CC(C)C)C(=O)NCC(=O)N[C@@H](Cc4ccccc4)C(=O)N[C@@H](CCSC)C(=O)N[C@@H](CCCNC(=N)N)C(=O)N[C@@H](CCCCN)C(=O)N2)NC(=O)[C@H](CSSC[C@@H](C(=O)N[C@@H](CCCCN)C(=O)N[C@@H](Cc2ccc(O)cc2)C(=O)N[C@H](C(=O)N[C@@H](Cc2ccccc2)C(N)=O)C(C)C)NC(=O)[C@H](Cc2c[nH]c4ccccc24)NC(=O)[C@H](CCCCN)NC(=O)[C@H](Cc2c[nH]cn2)NC(=O)[C@H]([C@@H](C)O)NC(=O)[C@H](CCCNC(=N)N)NC(=O)[C@H](CO)NC3=O)NC(=O)[C@H](CCCCN)NC(=O)[C@H](CC(=O)O)NC(=O)[C@H](CC(N)=O)NC(=O)[C@H](CCCCN)NC(=O)[C@@H]2CCCN2C1=O [compound 42] (H-DCLGFMRKCIPKNDKCCRPNLVCSRTHKWCKYVF-NH2; disulfide 2-17, 9-23, 16-30)
IC50: 0.12 µM

CSCC[C@@H]1NC(=O)[C@H](Cc2ccccc2)NC(=O)CNC(=O)[C@H](CC(C)C)NC(=O)[C@@H](NC(=O)[C@@H](N)CC(=O)O)CSSC[C@@H]2NC(=O)[C@@H]3CSSC[C@@H](C(=O)N[C@@H](CCCCN)C(=O)N[C@@H](Cc4ccc(O)cc4)C(=O)N[C@H](C(=O)N[C@@H](Cc4ccccc4)C(N)=O)C(C)C)NC(=O)[C@H](Cc4c[nH]c5ccccc45)NC(=O)[C@H](CCCCN)NC(=O)[C@H](Cc4c[nH]cn4)NC(=O)[C@H]([C@@H](C)O)NC(=O)[C@H](CCCNC(=N)N)NC(=O)[C@H](CO)NC(=O)[C@H](CSSC[C@H](NC(=O)[C@H](CCCCN)NC(=O)[C@H](CCCNC(=N)N)NC1=O)C(=O)N[C@@H](C)C(=O)N1CCC[C@H]1C(=O)N[C@@H](CC(=O)O)C(=O)N[C@@H](CC(N)=O)C(=O)N[C@@H](CC(=O)O)C(=O)N[C@@H](CCCCN)C(=O)N3)NC(=O)[C@H](C(C)C)NC(=O)[C@H](CC(C)C)NC(=O)[C@H](CC(N)=O)NC(=O)[C@@H]1CCCN1C(=O)[C@H](CCCNC(=N)N)NC2=O [compound 45] (H-DCLGFMRKCAPDNDKCCRPNLVCSRTHKWCKYVF-NH2; disulfide 2-17, 9-23, 16-30)
IC50 (IonWorks Quattro, Use): 0.21 µM

CC[C@H](C)[C@@H]1NC(=O)[C@@H]2CSSC[C@@H]3NC(=O)[C@H](C(C)C)NC(=O)[C@H](CC(C)C)NC(=O)[C@H](CC(N)=O)NC(=O)[C@@H]4CCCN4C(=O)[C@H](CCCNC(=N)N)NC(=O)[C@H](CSSC[C@H](NC(=O)[C@@H](N)CC(=O)O)C(=O)N[C@@H](CC(C)C)C(=O)NCC(=O)N[C@@H](Cc4ccccc4)C(=O)N[C@@H](CCSC)C(=O)N[C@@H](CCCNC(=N)N)C(=O)N[C@@H](CCCCN)C(=O)N2)NC(=O)[C@H](CSSC[C@@H](C(=O)N[C@@H](CCCCN)C(=O)N[C@@H](Cc2ccc(O)cc2)C(=O)N[C@H](C(=O)N[C@@H](Cc2ccccc2)C(N)=O)C(C)C)NC(=O)[C@H](Cc2c[nH]c4ccccc24)NC(=O)[C@H](CCCCN)NC(=O)[C@H](Cc2c[nH]cn2)NC(=O)[C@H]([C@@H](C)O)NC(=O)[C@H](CCCNC(=N)N)NC(=O)[C@H](CO)NC3=O)NC(=O)[C@H](CCCCN)NC(=O)[C@H](CC(=O)O)NC(=O)[C@H](CCCCN)NC(=O)[C@H](CC(=O)O)NC(=O)[C@@H]2CCCN2C1=O [compound 48] (H-DCLGFMRKCIPDKDKCCRPNLVCSRTHKWCKYVF-NH2; disulfide 2-17, 9-23, 16-30)
IC50 (IonWorks Quattro, Use): 0.21 µM
